How the values were obtained:
[1] = combination of in vitro mouse lymphoma, chromosomal aberration, and micronucleus tests; cited from earlier work
γ-H2AX in HepG2 cells [2] = experiment: γ-H2AX time-effect relationship / DNA repair kinetics (k, t50) in HepG2 cells; assay type: cell-based, Human; parameters: k (speed of γ-H2AX descending): unit not given here; details: 100 μM, 0.5–8 h time-dependent kinetics
Procedure: The cells were then treated with different chemotherapy agents in serum-free medium. […] Independent biological experiments with three technical replicates were performed.
(§1) In short, the cell clumps were collected after a certain period of cell culture and histones were obtained by acid extraction. After nuclear isolation, histone extraction, trypsin digestion in the solution, and desalting, the peptide sample from the carboxy terminus of H2AX was analyzed. LC–MS/MS analysis was conducted using a QTRAP 5500 (AB Sciex, Framingham, United States) with an ACQUITY UPLC system (Waters Co., Manchester, United Kingdom). Chromatographic separation was carried out with an ACQUITY UPLC BEH C18 column (100 mm × 2.1 mm, 1.7 μm). The column temperature was maintained at 40°C. A 10 μL sample aliquot was injected for analysis. Mobile phases A and B were 0.1% FA in distilled H2O and acetonitrile, respectively. […] The eluent composition was maintained for 2 min, after which the system returned to 1% B and was re-equilibrated for 2 min. The eluates in the first 1 min were switched to waste to prevent contaminating the ion source. The electrospray ionization source was operated in positive mode using nitrogen as the nebulizing gas. All experiments were performed independently in at least triplicate.
Here, we estimated k and t50 after exposure to nine representative chemotherapy agents based on the 0.5–8 h γ-H2AX time-dependent kinetics (Figure 5) and then obtained these parameters to describe each agent DSB repair capacity using the functions optim and optimize in R language.

γ-H2AX in HepG2 cells [3] = experiment: γ-H2AX MS assay, dose-effect relationship in HepG2 cells; details: for maximum γ-H2AX value within the selected concentration range / Genotoxicity in γ-H2AX MS assay / Variation of γ-H2AX: 24 h; for γ-H2AX MEC/MS (minimum effective concentration): 24 h exposure; for Genotoxicity in γ-H2AX MS assay: tested concentration 1 mM
Procedure: Human hepatoblastoma cells (HepG2) were cultivated in DMEM medium under standard conditions (37°C in a 5% CO2 atmosphere). The culturing medium was added with 10% FBS, 100 U/mL penicillin and 100 μg/mL streptomycin.
In accordance to our previous study, cells were exposed to the chemotherapeutic agent by adding a proper volume of chemotherapeutic agent stock solution to the fresh medium without serum. Controls were treated with DMSO (0.1%) in medium. Independent biological experiments with three technical replicates were conducted.
The cells were then treated with different chemotherapy agents in serum-free medium. For a dose-effect relationship experiment, cells were exposed to each agent at either of three concentrations with a 10-fold increase for 24 h. For the time-effect relationship experiment of nine tested chemotherapy agents, cells were exposed to selected chemotherapy agents at 0.5, 1, 2, 4, 8, 12, and 24 h, with the concentration of 100 μM. Independent biological experiments with three technical replicates were performed.
as §1, with “The quantification of γ-H2AX was carried out according to the previous report ([Qu et al., 2021]). In” for “In”
To this end, we firstly examined the cytotoxicity of 34 chemotherapy agents, all of which were already well classified in terms of diverse characteristics. These tested chemotherapy agents were serially diluted for exposure to check the effects on cell viability.

Deoxyfluridine
In vitro assays (genotoxicity) [1]: + | k (speed of γ-H2AX descending) (γ-H2AX in HepG2 cells [2]): 4.157 | t50 (time required for γ-H2AX to drop to half of the maximum value) (γ-H2AX in HepG2 cells [2]): 1.201 h | value of γ-H2AX (γ-H2AX in HepG2 cells [3]; HepG2 cells, 100 μM of exposure concentration): 8.4 | maximum γ-H2AX value within the selected concentration range (γ-H2AX in HepG2 cells [3]; HepG2 cells): 8.4 | γ-H2AX MEC/MS (minimum effective concentration) (γ-H2AX in HepG2 cells [3]; HepG2 cells): ↑(10) µM | γ-H2AX MEC/MS (minimum effective concentration) (γ-H2AX in HepG2 cells [3]; HepG2 cells, listed as deoxyfluridine): 10 µM

N#Cc1ccc(C(c2ccc(C#N)cc2)n2cncn2)cc1 [Letrozole]
In vitro assays (genotoxicity) [1]: − | maximum γ-H2AX value within the selected concentration range (γ-H2AX in HepG2 cells [3]; human): 3.1

CN(C)/N=N/c1[nH]cnc1C(N)=O [Dacarbazine]
In vitro assays (genotoxicity) [1]: + | maximum γ-H2AX value within the selected concentration range (γ-H2AX in HepG2 cells [3]; human): 5.8

O=P1(NCCCl)OCCCN1CCCl (centres unmarked) [Ifosfamide]
γ-H2AX MEC/MS (minimum effective concentration) (γ-H2AX in HepG2 cells [3]; HepG2 cells): ↑(1000) µM

O=P1(N(CCCl)CCCl)NCCCO1 (centres unmarked) [Cyclophosphamide]
In vitro assays (genotoxicity) [1]: + | maximum γ-H2AX value within the selected concentration range (γ-H2AX in HepG2 cells [3]; HepG2 cells): 7.4 | Genotoxicity in γ-H2AX MS assay (γ-H2AX in HepG2 cells [3]; HepG2 cells): genotoxic | γ-H2AX MEC/MS (minimum effective concentration) (γ-H2AX in HepG2 cells [3]; HepG2 cells): ↑(1000) µM

O=NN(CCCl)C(=O)NCCCl [Carmustine]
k (speed of γ-H2AX descending) (γ-H2AX in HepG2 cells [2]): 0.169 | t50 (time required for γ-H2AX to drop to half of the maximum value) (γ-H2AX in HepG2 cells [2]): 2.298 h | γ-H2AX MEC/MS (minimum effective concentration) (γ-H2AX in HepG2 cells [3]; HepG2 cells): ↑(0.01) µM | γ-H2AX MEC/MS (minimum effective concentration) (γ-H2AX in HepG2 cells [3]; HepG2 cells, listed as carmustine): 0.01 µM

O=C1c2c(O)ccc(O)c2C(=O)c2c(NCCNCCO)ccc(NCCNCCO)c21 [Mitoxantrone]
In vitro assays (genotoxicity) [1]: + | k (speed of γ-H2AX descending) (γ-H2AX in HepG2 cells [2]): 0.111 | t50 (time required for γ-H2AX to drop to half of the maximum value) (γ-H2AX in HepG2 cells [2]): 7.999 h

C[C@]12CCC(=O)C(O)=C1CC[C@@H]1[C@@H]2CC[C@]2(C)C(=O)CC[C@@H]12 [Formestane]
In vitro assays (genotoxicity) [1]: − | maximum γ-H2AX value within the selected concentration range (γ-H2AX in HepG2 cells [3]; HepG2 cells): 3.2 | Genotoxicity in γ-H2AX MS assay (γ-H2AX in HepG2 cells [3]; HepG2 cells): none of the selected antitumor hormones exhibited genotoxicity

C=C1C[C@@H]2[C@H](CC[C@]3(C)C(=O)CC[C@@H]23)[C@@]2(C)C=CC(=O)C=C12 [Exemestane]
In vitro assays (genotoxicity) [1]: − | maximum γ-H2AX value within the selected concentration range (γ-H2AX in HepG2 cells [3]; human): 3.1

O=c1[nH]cc(F)c(=O)[nH]1 [5-fluorouracil]
In vitro assays (genotoxicity) [1]: + | maximum γ-H2AX value within the selected concentration range (γ-H2AX in HepG2 cells [3]; human): 5.2

Cc1ncc(CNC(=O)N(CCCl)N=O)c(N)n1 [Nimustine]
k (speed of γ-H2AX descending) (γ-H2AX in HepG2 cells [2]): 0.160 | t50 (time required for γ-H2AX to drop to half of the maximum value) (γ-H2AX in HepG2 cells [2]): 2.465 h | γ-H2AX MEC/MS (minimum effective concentration) (γ-H2AX in HepG2 cells [3]; HepG2 cells): ↑(0.01) µM | γ-H2AX MEC/MS (minimum effective concentration) (γ-H2AX in HepG2 cells [3]; HepG2 cells, listed as nimustine): 0.01 µM

CC[C@]1(O)C[C@H]2CN(CCc3c([nH]c4ccccc34)[C@@](C(=O)OC)(c3cc4c(cc3OC)N(C=O)[C@H]3[C@@](O)(C(=O)OC)[C@H](OC(C)=O)[C@]5(CC)C=CCN6CC[C@]43[C@@H]65)C2)C1 [Vincristine]
Variation of γ-H2AX (γ-H2AX in HepG2 cells [3]; human): no variations of γ-H2AX | maximum γ-H2AX value within the selected concentration range (γ-H2AX in HepG2 cells [3]; human): 3

Sc1ncnc2nc[nH]c12 [6-mercaptopurine]
In vitro assays (genotoxicity) [1]: + | maximum γ-H2AX value within the selected concentration range (γ-H2AX in HepG2 cells [3]; human): 5.82

CCC1=C[C@@H]2CN(C1)Cc1c([nH]c3ccccc13)[C@@](C(=O)OC)(c1cc3c(cc1OC)N(C)[C@H]1[C@@](O)(C(=O)OC)[C@H](OC(C)=O)[C@]4(CC)C=CCN5CC[C@]31[C@@H]54)C2 [Vinorelbine]
Variation of γ-H2AX (γ-H2AX in HepG2 cells [3]; human): no variations of γ-H2AX | maximum γ-H2AX value within the selected concentration range (γ-H2AX in HepG2 cells [3]; human): 3.3

N.N.O=C([O-])C1(C(=O)[O-])CCC1.[Pt+2] [Carboplatin]
In vitro assays (genotoxicity) [1]: + | maximum γ-H2AX value within the selected concentration range (γ-H2AX in HepG2 cells [3]; HepG2 cells): 7.2 | γ-H2AX MEC/MS (minimum effective concentration) (γ-H2AX in HepG2 cells [3]; HepG2 cells): ↑(100) µM | γ-H2AX MEC/MS (minimum effective concentration) (γ-H2AX in HepG2 cells [3]; HepG2 cells, listed as carboplatin): 100 µM

— paper PMC11219945, “Assessing genotoxic effects of chemotherapy agents by a robust in vitro assay based on mass spectrometric quantification of γ-H2AX in HepG2 cells” (Frontiers in Pharmacology, 2024)
